# Assay results as given in article PMC11995216, “End-to-End Backbone Cyclization Enhances Passive Permeability of bRo5 Oligomeric Depsipeptides with Nonlinear Size Dependence” (ACS Medicinal Chemistry Letters, 2025).
# Several values for one entry are separate records, joined by “and”; a condition that tells them apart may be missing. Equal values may be shown once. Read-outs that look alike come from different tables or passages of the source.
# Experiments:
# PAMPA [1] = tested on: PAMPA
# PAMPA [2] = conditions: UV detection
# [3] = PAMPA, permeability assay across an artificial membrane; conditions: for Diffusion (%): PAMPA percent diffusion; for Acceptor Concentration, Ave: after incubation; for Δ % diffusion: increase: difference between percent diffusion of macrocycle vs linear counterpart
# PAMPA [4] = tested on: PAMPA; remark: listed apart in the source
# PAMPA [5] = conditions: calculated using Supplement Equation 1, UV detection
# PAMPA [6] = tested on: PAMPA; remark: listed apart in the source
# [7] = UV detection
# [8] = calculated using Supplement Equation 1, UV detection
# [9] = PAMPA, (acceptor + donor)/total analyte, C0 500 uM
# [10] = PAMPA, Papp, ratio-based method, mean ± SD, C0 500 uM, UV detection
# [11] = PAMPA, Recovery (%), PAMPA, (acceptor + donor)/total analyte, C0 500 uM
smiles,measurement,setting,value
"CCCCC[C@@H]1OC(=O)[C@@H](C)N(C)C(=O)[C@H](CCCCC)OC(=O)[C@@H](C)N(C)C(=O)[C@H](CCCCC)OC(=O)[C@@H](C)N(C)C1=O [Compound C1.3, ent-verticilide B1]",Papp,"PAMPA [1]; Papp (x 10^-6 cm/s) – ELSD Detection / [row 1], ELSD Detection",4.16 ×10⁻⁶ cm/s
same,Papp,"PAMPA [1]; Papp (x 10^-6 cm/s) – ELSD Detection / [row 2], ELSD Detection",4.41 ×10⁻⁶ cm/s
same,Papp,"PAMPA [1]; Papp (x 10^-6 cm/s) – ELSD Detection / [row 3], ELSD Detection",3.96 ×10⁻⁶ cm/s
same,Papp,"PAMPA [1]; Papp (x 10^-6 cm/s) – ELSD Detection / [row 4], ELSD Detection",4.13 ×10⁻⁶ cm/s
same,Papp,"PAMPA [1]; Papp (x 10^-6 cm/s) – ELSD Detection / [row 5], ELSD Detection",4.45 ×10⁻⁶ cm/s
same,Papp,"PAMPA [1]; Papp (x 10^-6 cm/s) – ELSD Detection / [row 6], ELSD Detection",4.03 ×10⁻⁶ cm/s
same,Papp,"PAMPA [1]; Papp (x 10^-6 cm/s) – ELSD Detection / [row 9], ELSD Detection",4.31 ×10⁻⁶ cm/s
same,Papp,"PAMPA [1]; Papp (x 10^-6 cm/s) – ELSD Detection / [row 10], ELSD Detection",4.39 ×10⁻⁶ cm/s
same,Papp,"PAMPA [1]; Papp (x 10^-6 cm/s) – ELSD Detection / [row 11], ELSD Detection",3.96 ×10⁻⁶ cm/s
same,Papp,"PAMPA [1]; Papp (x 10^-6 cm/s) – ELSD Detection / [row 12], ELSD Detection",4.4 ×10⁻⁶ cm/s
same,Papp,"PAMPA [1]; Papp (x 10^-6 cm/s) – ELSD Detection / [row 13], ELSD Detection",5.05 ×10⁻⁶ cm/s
same,Papp,"PAMPA [1]; Papp (x 10^-6 cm/s) – ELSD Detection / [row 14], ELSD Detection",4.44 ×10⁻⁶ cm/s
same,Papp,"PAMPA [1]; Papp (x 10^-6 cm/s) – ELSD Detection / [row 15], ELSD Detection",4.01 ×10⁻⁶ cm/s
same,Papp,"PAMPA [1]; Papp (x 10^-6 cm/s) – UV Detection / [row 1], UV Detection",3.32 ×10⁻⁶ cm/s
same,Papp,"PAMPA [1]; Papp (x 10^-6 cm/s) – UV Detection / [row 2], UV Detection",4.01 ×10⁻⁶ cm/s
same,Papp,"PAMPA [1]; Papp (x 10^-6 cm/s) – UV Detection / [row 3], UV Detection",4.37 ×10⁻⁶ cm/s
same,Papp,"PAMPA [1]; Papp (x 10^-6 cm/s) – UV Detection / [row 4], UV Detection",3.67 ×10⁻⁶ cm/s
same,Papp,"PAMPA [1]; Papp (x 10^-6 cm/s) – UV Detection / [row 5], UV Detection",3.75 ×10⁻⁶ cm/s
same,Papp,"PAMPA [1]; Papp (x 10^-6 cm/s) – UV Detection / [row 7], UV Detection",3.19 ×10⁻⁶ cm/s
same,Papp,"PAMPA [1]; Papp (x 10^-6 cm/s) – UV Detection / [row 8], UV Detection",4 ×10⁻⁶ cm/s
same,Papp,"PAMPA [1]; Papp (x 10^-6 cm/s) – UV Detection / [row 9], UV Detection",3.36 ×10⁻⁶ cm/s
same,Papp,"PAMPA [1]; Papp (x 10^-6 cm/s) – UV Detection / [row 10], UV Detection",3.7 ×10⁻⁶ cm/s
same,Papp,"PAMPA [1]; Papp (x 10^-6 cm/s) – UV Detection / [row 11], UV Detection",3.24 ×10⁻⁶ cm/s
same,Papp,"PAMPA [1]; Papp (x 10^-6 cm/s) – UV Detection / [row 12], UV Detection",3.17 ×10⁻⁶ cm/s
same,Papp,"PAMPA [1]; Papp (x 10^-6 cm/s) – UV Detection / [row 13], UV Detection",3.78 ×10⁻⁶ cm/s
same,Papp,"PAMPA [1]; Papp (x 10^-6 cm/s) – UV Detection / [row 14], UV Detection",3.81 ×10⁻⁶ cm/s
same,Papp,"PAMPA [1]; Papp (x 10^-6 cm/s) – UV Detection / [row 15], UV Detection",3.57 ×10⁻⁶ cm/s
same,% recovery,"PAMPA [2]; Well 1 / %R, Well 1",97% and 94% and 93%
same,% recovery,"PAMPA [2]; Well 2 / %R, Well 2",94% and 92%
same,% recovery,"PAMPA [2]; Well 3 / %R, Well 3",88% and 89% and 94%
same,% recovery,"PAMPA [2]; Well 4 / %R, Well 4",94% and 89% and 90%
same,% recovery,"PAMPA [2]; Well 5 / %R, Well 5",87%
same,Diffusion (%),[3]; C0 500 uM,18.04% and 18.0 ± 1.5%
same,Recovery (%),[3]; [9],91%
same,Papp at 500 uM,"[3]; PAMPA, Papp, Ave, ELSD detection, C0 500 uM",4.24 ×10⁻⁶ cm/s
same,Papp at 500 uM,[3]; [10],3.64 ± 0.42 ×10⁻⁶ cm/s
same,recovery at 500 uM,[3]; [11],91.2%
same,"Acceptor Concentration, Ave","[3]; PAMPA, ELSD detection, C0 500 uM",101.2 µM
same,"Acceptor Concentration, Ave","[3]; PAMPA, UV detection, C0 500 uM",89.4 µM
same,Δ % diffusion,[3],↑3%
same,donor concentration after incubation,PAMPA [4]; Well 1 / [donor],396 µM and 390 µM and 380 µM
same,donor concentration after incubation,PAMPA [4]; Well 2 / [donor],370 µM and 376 µM and 374 µM
same,donor concentration after incubation,PAMPA [4]; Well 3 / [donor],341 µM and 351 µM and 372 µM
same,donor concentration after incubation,PAMPA [4]; Well 4 / [donor],377 µM and 362 µM and 356 µM
same,donor concentration after incubation,PAMPA [4]; Well 5 / [donor],347 µM and 349 µM and 351 µM
same,%T,"PAMPA [5]; Well 1 / %T, Well 1",0.44% (2×) and 0.41%
same,%T,"PAMPA [5]; Well 2 / %T, Well 2",0.51% and 0.43% (2×)
same,%T,"PAMPA [5]; Well 3 / %T, Well 3",0.54% and 0.51% and 0.49%
same,%T,"PAMPA [5]; Well 4 / %T, Well 4",0.48% (2×) and 0.45%
same,%T,"PAMPA [5]; Well 5 / %T, Well 5",0.48% (2×) and 0.47%
same,Acceptor Concentration,PAMPA [6]; Acceptor Concentration (uM) – ELSD Detection / [row 1],102 µM
same,Acceptor Concentration,PAMPA [6]; Acceptor Concentration (uM) – ELSD Detection / [row 2],106 µM
same,Acceptor Concentration,PAMPA [6]; Acceptor Concentration (uM) – ELSD Detection / [row 3],96 µM
same,Acceptor Concentration,PAMPA [6]; Acceptor Concentration (uM) – ELSD Detection / [row 4],101 µM
same,Acceptor Concentration,PAMPA [6]; Acceptor Concentration (uM) – ELSD Detection / [row 5],106 µM
same,Acceptor Concentration,PAMPA [6]; Acceptor Concentration (uM) – ELSD Detection / [row 6],98.1 µM
same,Acceptor Concentration,PAMPA [6]; Acceptor Concentration (uM) – ELSD Detection / [row 7],103 µM
same,Acceptor Concentration,PAMPA [6]; Acceptor Concentration (uM) – ELSD Detection / [row 8],90.6 µM
same,Acceptor Concentration,PAMPA [6]; Acceptor Concentration (uM) – ELSD Detection / [row 9],103 µM
same,Acceptor Concentration,PAMPA [6]; Acceptor Concentration (uM) – ELSD Detection / [row 10],101 µM
same,Acceptor Concentration,PAMPA [6]; Acceptor Concentration (uM) – ELSD Detection / [row 11],96.3 µM
same,Acceptor Concentration,PAMPA [6]; Acceptor Concentration (uM) – ELSD Detection / [row 12],107 µM
same,Acceptor Concentration,PAMPA [6]; Acceptor Concentration (uM) – ELSD Detection / [row 13],112 µM
same,Acceptor Concentration,PAMPA [6]; Acceptor Concentration (uM) – ELSD Detection / [row 14],102 µM
same,Acceptor Concentration,PAMPA [6]; Acceptor Concentration (uM) – ELSD Detection / [row 15],94.9 µM
same,Acceptor Concentration,PAMPA [6]; Acceptor Concentration (uM) – UV Detection / [row 1],89.6 µM
same,Acceptor Concentration,PAMPA [6]; Acceptor Concentration (uM) – UV Detection / [row 2],100 µM
same,Acceptor Concentration,PAMPA [6]; Acceptor Concentration (uM) – UV Detection / [row 3],101 µM
same,Acceptor Concentration,PAMPA [6]; Acceptor Concentration (uM) – UV Detection / [row 4],93.8 µM
same,Acceptor Concentration,PAMPA [6]; Acceptor Concentration (uM) – UV Detection / [row 5],88.6 µM
same,Acceptor Concentration,PAMPA [6]; Acceptor Concentration (uM) – UV Detection / [row 6],79.9 µM
same,Acceptor Concentration,PAMPA [6]; Acceptor Concentration (uM) – UV Detection / [row 7],82.2 µM
same,Acceptor Concentration,PAMPA [6]; Acceptor Concentration (uM) – UV Detection / [row 8],95.3 µM
same,Acceptor Concentration,PAMPA [6]; Acceptor Concentration (uM) – UV Detection / [row 9],83.1 µM
same,Acceptor Concentration,PAMPA [6]; Acceptor Concentration (uM) – UV Detection / [row 10],88.1 µM
same,Acceptor Concentration,PAMPA [6]; Acceptor Concentration (uM) – UV Detection / [row 11],84 µM
same,Acceptor Concentration,PAMPA [6]; Acceptor Concentration (uM) – UV Detection / [row 12],81.4 µM
same,Acceptor Concentration,PAMPA [6]; Acceptor Concentration (uM) – UV Detection / [row 13],95.3 µM
same,Acceptor Concentration,PAMPA [6]; Acceptor Concentration (uM) – UV Detection / [row 14],92.2 µM
same,Acceptor Concentration,PAMPA [6]; Acceptor Concentration (uM) – UV Detection / [row 15],85.4 µM
CCCCC[C@H](OC(=O)[C@@H](C)N(C)C(=O)[C@H](CCCCC)OC(=O)[C@@H](C)N(C)C(=O)[C@H](CCCCC)OC(=O)[C@@H](C)N(C)C(=O)[C@H](CCCCC)OC(=O)[C@@H](C)N(C)C(=O)[C@H](CCCCC)OC(=O)[C@@H](C)N(C)C(=O)[C@H](CCCCC)OC(=O)[C@@H](C)N(C)C(=O)OC(C)(C)C)C(=O)OCc1ccccc1 [Compound L1.6],Papp,"PAMPA [1]; Papp (x 10^-6 cm/s) / experiment 1, UV detection",0.4 ×10⁻⁶ cm/s
same,Papp,"PAMPA [1]; Papp (x 10^-6 cm/s) / experiment 2, UV detection",0.44 ×10⁻⁶ cm/s
same,Papp,"PAMPA [1]; Papp (x 10^-6 cm/s) / experiment 3, UV detection",0.41 ×10⁻⁶ cm/s
same,Papp,"PAMPA [1]; Papp (x 10^-6 cm/s) / experiment 5, UV detection",0.44 ×10⁻⁶ cm/s
same,Papp,"PAMPA [1]; Papp (x 10^-6 cm/s) / experiment 6, UV detection",0.43 ×10⁻⁶ cm/s
same,Papp,"PAMPA [1]; Papp (x 10^-6 cm/s) / experiment 7, UV detection",0.41 ×10⁻⁶ cm/s
same,Papp,"PAMPA [1]; Papp (x 10^-6 cm/s) / experiment 8, UV detection",0.43 ×10⁻⁶ cm/s
same,Papp,"PAMPA [1]; Papp (x 10^-6 cm/s) / experiment 10, UV detection",0.4 ×10⁻⁶ cm/s
same,% recovery,"[7]; Well 1 / %R, Well 1",87% and 82%
same,% recovery,"[7]; Well 2 / %R, Well 2",80% and 87%
same,% recovery,"[7]; Well 3 / %R, Well 3",85% and 82%
same,% recovery,"[7]; Well 4 / %R, Well 4",83%
same,% recovery,"[7]; Well 5 / %R, Well 5",81% and 88%
same,Diffusion (%),[3]; C0 500 uM,< 5%
same,Recovery (%),[3]; [9],84%
same,Papp,[3]; [10],0.42 ×10⁻⁶ cm/s
same,recovery,[3]; [11],83.7%
same,"Acceptor Concentration, Ave","[3]; PAMPA, UV detection, C0 500 uM",< 25 µM
same,Δ % diffusion,[3],↑2%
same,donor concentration after incubation,Well 1 / [donor],435 µM and 410 µM
same,donor concentration after incubation,Well 2 / [donor],398 µM and 434 µM
same,donor concentration after incubation,Well 3 / [donor],424 µM and 410 µM
same,donor concentration after incubation,Well 4 / [donor],416 µM and 415 µM
same,donor concentration after incubation,Well 5 / [donor],403 µM and 438 µM
same,%T,"[8]; Well 1 / %T, Well 1",0.32% and 0.44%
same,%T,"[8]; Well 2 / %T, Well 2",0.37% and 0.33%
same,%T,"[8]; Well 3 / %T, Well 3",0.44% and 0.4%
same,%T,"[8]; Well 4 / %T, Well 4",0.41%
same,%T,"[8]; Well 5 / %T, Well 5",0.37%
